Common to all, as to test: in vitro antibacterial potency test, doubling dilution agar plate method
Format in all cases: cell-based

Experiment [1] deals with Escherichia coli NIHJ-JC2. Conditions: NIHJJC2, 20 hours at 37° C., inoculum 0.005 ml of ca. 10^8 /ml, read-out: minimal inhibitory concentration (MIC). Here is the method: (§1) Using compound (1a-i), an in vitro antibacterial potency test was performed by the doubling dilution agar plate method. Each test strain was cultured in a sensitivity assay bouillon for 20 hours and 0.005 ml of the culture (viable cell count: ca. 10^8 /ml) was inoculated on a sensitivity assay agar medium containing a varying concentration of the antibacterial compound.
(§2) After 20 hours of incubation at 37° C., the minimal inhibitory concentration (MIC) was determined and expressed in units of μg/ml.

Experiment [2] concerns Staphylococcus aureus 209P. Conditions: 20 hours at 37° C., inoculum 0.005 ml of ca. 10^8 /ml, read-out: minimal inhibitory concentration (MIC). Here is the method: as §1, §2
The test system of another experiment is Proteus vulgaris. Conditions: 20 hours at 37° C., inoculum 0.005 ml of ca. 10^8 /ml, read-out: minimal inhibitory concentration (MIC). The method, then: as §1, §2
A further experiment concerns Serratia marcescens. To be noted: 20 hours at 37° C., inoculum 0.005 ml of ca. 10^8 /ml, read-out: minimal inhibitory concentration (MIC). Here is the method: as §1, §2
For another experiment, the system named is Pseudomonas aeruginosa. To be noted: 20 hours at 37° C., inoculum 0.005 ml of ca. 10^8 /ml, read-out: minimal inhibitory concentration (MIC). Here is the method: as §1, §2
The test system of experiment [3] is Staphylococcus aureus, methicillin-resistant. To be noted: 20 hours at 37° C., inoculum 0.005 ml of ca. 10^8 /ml, read-out: minimal inhibitory concentration (MIC). Here is the method:
as §1, §2

SMILES strings stand for the structures. Values after ≈ are worked out from the molar mass of the structure shown.

As to `COC(=O)CCSCC1SC2C(NC(=O)Cc3ccccc3)C(=O)N2C1C(=O)O` (stereo not drawn) [compound (1a-i)], the MIC is 12.5 µg/mL (≈ 28.5 µM) in experiment [1]; 0.1 µg/mL (≈ 0.228 µM) in experiment [2]; 0.39 µg/mL (≈ 0.889 µM) in the experiment on Proteus vulgaris; 12.5 µg/mL (≈ 28.5 µM) with Serratia marcescens; 100 µg/mL (≈ 228 µM) in the experiment with Pseudomonas aeruginosa; 100 µg/mL (≈ 228 µM) in experiment [3].

For the origin of these results see US5599925A, “Penam derivatives” (Otsuka Kagaku Kabushiki Kaisha, priority 1991, dated 1997).
